Tests used:
GlAD [1] = target: T1, GlAD (Giardia duodenalis, UniProt Q27657); type: biochemical; settings: read-out: KI; pH 7.5, 25 °C, 50 mM K+HEPES; covalent; irreversible, two-step inactivation; active site directed
GlAD [2] = target: T1, GlAD; experiment: steady-state inhibition, glutamate dehydrogenase-coupled assay; type: biochemical

N[C@@H](CCSN=O)C(=O)O [S-nitroso-L-homocysteine]
KI (inactivation) (GlAD [1]): 40 ± 10 mM

N=C(N)NCCCC[C@H](N)C(=O)O [L-homoarginine]
Ki (GlAD [2]): 48 ± 6 mM

N=C(N)NCCCCN [agmatine]
Ki (GlAD [2]): 50 ± 10 mM

Reference: publication PMC4590290 (Bioorganic chemistry, 2009)
